In patent publication US8957042B2, “Cancer treatment targeting non-coding RNA overexpression” (The Texas A&M University System, priority 2012, dated 2015):

Key:
HOTAIR = HOTAIR expression (RNA levels, real time PCR) in Panc1 cells; assay type: cell-based, human; conditions: for HOTAIR expression after siRNA transfection: vs siCT
Protocol: (§1) RNA isolation and quantitative PCR: Total RNA was extracted either from pancreatic cancer cell lines or from tissue samples. Five control and siRNA HOTAIR-transfected tissue samples were analyzed, respectively, from xenograft study using mirVana RNA isolation kit from Ambion (Austin, Tex., USA), and quantitative PCR was carried out using iCycler IQTM real-time PCR detection system (Bio-Rad, Hercules, Calif., USA) after reverse transcription to cDNAs. The RT primer sets for HOTAIR, PCDHB5, PCDH10, JAM2, LAMB3, ABL2, SNA1 and LAMC2 were used as described previously (Gupta, R. A., et al., “Long Non-Coding RNA HOTAIR Reprograms Chromatin State to Promote Cancer Metastasis,” Nature 464:1071-1076, 2010). The forward and reverse oligonucleotide primer sequences specifically for HOTAIR amplification and detection are also set forth herein as SEQ ID NOS:1 and 2, respectively.

[1] = test system: Sp1, Sp3, and Sp4 proteins; assay: Sp1, Sp3 and Sp4 protein expression in Panc1 cells; assay type: cell-based, human
ZBTB10 = ZBTB10 expression in Panc1 cells; assay type: cell-based, human
miR-27a = miR-27a expression in Panc1 cells; assay type: cell-based, human
MALAT-1 [2] = assay: MALAT-1 expression (RNA abundance) in Panc1 cells; assay type: cell-based, human; conditions: doses of 5.0 and 7.0 μM
Protocol: (§2) MALAT-1 RNA was detected using forward and reverse oligonucleotides with sequences set forth herein as SEQ ID NOS:7 and 8. Furthermore, MALAT-1 can be detected in serum obtained from pancreatic cancer patients (not shown) and this correlates with the reported high expression of MALAT-1 in pancreatic tumors compared to non-tumor tissues. Subsequent MALAT-1 knockdown studies with RNA interference were conducted using two oligonucleotides (siMALAT-1a and siMALAT-1b), the sequences of which are set forth herein as SEQ ID NOS:5 and 6, respectively. […] Thus, MALAT-1 and MALAT-1-regulated genes play a role in pancreatic cancer cell growth. […] Additional studies on the role of MALAT-1 in cell survival and kinase signaling were performed, because both pathways are affected, in part, by overexpression of growth factors and activating RAS mutations. These aspects are common in many pancreatic cancer cell lines and tumors.

MALAT-1 [3] = assay: MALAT-1 expression (RNA abundance) in L3.6pL cells; assay type: cell-based; conditions: doses of 5.0 and 7.0 μM
Protocol: as §2

ROS = ROS induction in pancreatic cancer cells; assay type: cell-based; conditions: pancreatic cancer cells (data not shown)
miR-27a, ZBTB10 = conditions: colon cancer cells; cited from earlier work
cyclin D1 and cyclin E [4] = assay: Cyclin D1 and cyclin E mRNA in Panc1 cells; assay type: cell-based, human; conditions: Panc1 cells (FIG. 2C)
Protocol: as §1

cyclin D1 and cyclin E [5] = assay: Cyclin D1 and cyclin E mRNA in L3.6pL cells; assay type: cell-based; conditions: L3.6pL cells (FIG. 2D)
Protocol: as §1

Panc1 cells [6] = assay: Annexin V apoptosis assay, Panc1; assay type: cell-based, human; conditions: Panc1 cells transfected with siRNA
Protocol: (§3) Boyden chamber cell invasion and apoptosis assays: Pancreatic cancer cells were transfected with either siRNAs (HOTAIR vs. control) or expression vectors (empty vs. HOTAIR) and cell invasion assay was performed as described previously. Cells were transfected with siCT or siHOTAIR and after 72 h, cells were stained for Annexin V using the Vibrant apoptosis assay kit as described.

L3.6pL cells [7] = assay: Annexin V apoptosis assay, L3.6pL; assay type: cell-based; conditions: L3.6pL cells transfected with siRNA
Protocol: as §3

L3.6pL cells [8] = assay: Xenograft of siRNA-transfected L3.6pL cells in nude mice; assay type: in vivo
Protocol: Xenograft study: L3.6pL cells (6×10^4 ml) were transfected with 100 nM siHOTAIR or siCT using Lipofectamine. After 48 h cells were collected and 1×10^6 cells injected into either side of the flank area of female nude mice (Harlan), and tumor volumes and weights were determined in mice from the siHOTAIR (six mice) or siCT (six mice) groups as described, and siHOTAIR levels were determined by realtime PCR. Tumor volumes were measured (0.5×length×width^2) and after 16 days, the mice were killed and tumor weights were measured and also used for further analysis as described.
Immunohistochemistry and TUNEL assay: Tissue sections were deparaffinized in xylene and treated with graded series of alcohol and rehydrated in PBS. Antigen retrieval was done using 10 mM sodium citrate (pH 6.0-6.2) and endogenous peroxidase was blocked by 3% hydrogen peroxide in methanol for 6 min. Slides were then incubated with blocking serum (Vecstatin ABC Elite kit, Vector Laboratories, Burlingame, Calif., USA) for 45 min. Samples were then incubated overnight with Ki-67 and PCNA antibodies at 4° C. Sections were then washed in PBST and then incubated with biotinylated secondary antibody followed by streptavidin. The brown staining specific for antibody binding was developed by exposing the avidin and biotinylated peroxidase complex to diaminobenzidine reagent (Vector Laboratories) and sections were then counterstained with hematoxylin (Vector Laboratories). The in situ cell death detection POD kit was used for the TUNEL assay according to the instructions in the protocol for tissue sections.

GDF15 promoter = GDF15 promoter luciferase assay in Panc1 cells; assay type: cell-based, human
Protocol: siRNA transfection and luciferase assay: Pancreatic cancer cells were transfected with 100 nM of control siRNA or HOTAIR siRNA I (available from Sigma Aldrich, catalogue No. SASI_Hs02—00380445) or HOTAIR siRNA II (available from Sigma Aldrich, catalogue No. SASI_Hs02—00380446) using Lipofectamine 2000 (Invitrogen, Grand Island, N.Y., USA). Panc1 cells were cotransfected with control siRNA or HOTAIR siRNA I and HOTAIR II, and various length of GDF15 luciferase constructs. Luciferase activities were measured after 24 h as described previously. MISSION siRNAs for EZH2 and Suz12 were also purchased from Sigma Aldrich.

Panc1 cells [9] = assay: Cell proliferation (cell counting) of Panc1 cells after siRNA transfection; assay type: cell-based, human; conditions: vs control oligonucleotide
Protocol: (§4) Cell proliferation and fluorescence-activated cell sorting analysis and apoptosis: Cells were seeded in 12-well plates and transfected with either appropriate siRNA or expression vectors, and cell numbers were counted at the indicated times using a Coulter Z1 cell counter (Beckman Coulter, Fullerton, Calif., USA). For fluorescence-activated cell sorting analysis, after pancreatic cancer cells were transfected with siRNAs for either control or HOTAIR, cells were stained with propidium iodide solution and were analyzed on a FACS Calibur Flow Cytometer (Becton Dickinsin Systems, Franklin Lakes, N.J., USA).

L3.6pL cells [10] = assay: Cell proliferation (cell counting) of L3.6pL cells after siRNA transfection; assay type: cell-based; conditions: vs control oligonucleotide
Protocol: as §4

[11] = test system: cPARP, EZH2, Cyclin D1, survivin, VEGF; assay: Expression of cPARP, EZH2, Cyclin D1, survivin, VEGF in Panc1 cells; assay type: cell-based, human; conditions: Panc1 cells transfected with siRNA
Panc28 and Panc1 cells = assay: Transwell migration of pancreatic cancer cells (Boyden chamber); assay type: cell-based, human; conditions: pancreatic cancer cells (not shown)
Protocol: as §3

Panc28 cells = assay: Cell proliferation of Panc28 cells after siRNA transfection; assay type: cell-based, human; conditions: 48 and 72 hours, vs siLamin
Sp1, Sp3, and Sp4 mRNA = assay: Sp1, Sp3, Sp4 mRNA knockdown in Panc1 cells; assay type: cell-based, human; conditions: vs siCT
Excerpt: (§5) Using short interfering RNAs corresponding to SpTF genes for RNAi assays, expression of the SpTF were successfully knocked down. Sp1 was knocked down using an oligonucleotide with a sequence set forth herein as SEQ ID NO:19. Sp3 was knocked down using an oligonucleotide with a sequence set forth herein as SEQ ID NO:20. Sp4 was knocked down using an oligonucleotide with a sequence set forth herein as SEQ ID NO:21. […] FIG. 6B. In this assay, HOTAIRM was amplified and detected using forward and reverse oligonucleotide sequences set forth herein as SEQ ID NOS:3 and 4, respectively. Additionally, HOTTIP was amplified and detected using forward and reverse oligonucleotide sequences set forth herein as SEQ ID NOS:10 and 11, respectively.

HOTAIRM1 = HOTAIRM1 expression in Panc1 cells; assay type: cell-based, human
Excerpt: as §5

HOTTIP = HOTTIP expression in Panc1 cells; assay type: cell-based, human
Excerpt: as §5

miR-21 and miR-181b [12] = assay: Oncogenic miR levels in L3.6pL cells (real time PCR); assay type: cell-based; conditions: 100 nM siRNA
Protocol: (§6) Panc28 and L3.6pL pancreatic cancer cell lines were seeded (6×10^4 per well) in 6-well plates in DMEM:Ham's F-12 medium supplemented with 2.5% charcoal-stripped FBS without antibiotic and left to attach for 1 d. Single and triple Sp siRNA knockdown (iSp1, iSp3, iSp4) along with iLamin as control was performed using LipofectAMINE™2000 transfection reagent as per the manufacturer's protocol to attain 100 nM concentration of siRNA in the media. Cells were left with the transfection mixture for 24-48 hrs before changing to fresh 2.5% DMEM-F12 media. Cells were harvested after 60-72 hrs for protein, mRNA or miRNA. miRNA was extracted using mirVana™ miRNA extraction kit (Applied Biosystems) according to manufacturer's protocol and was used to assess expression of various non-coding RNAs using different primers and determined by real-time PCR.

miR-21 and miR-181b [13] = assay: Oncogenic miR levels in Panc28 cells (real time PCR); assay type: cell-based, human; conditions: 100 nM siRNA
Protocol: as §6

COC(=O)[C@@]1(C)CCC2(C)CC[C@]3(C)C(=CC(=O)[C@@H]4C5(C)C=C(C#N)C(=O)C(C)(C)[C@@H]5CCC43C)C2C1 (stereo partly drawn) [CDODA-Me, methyl 2-cyano-3,11-dioxo-18β-olean-1,12-dien-30-oate]
HOTAIR expression (HOTAIR; drug treatment, 24 hrs (FIG. 7B)): decreased | Sp1, Sp3, and Sp4 proteins ([1]; 24 hrs (FIG. 7A)): downregulate | Sp proteins after 48 hrs ([1]; 48 hrs): almost non-detectable | induction of ZBTB10, downregulation of miR-27a and repression of Sp1, Sp3, Sp4 after cotreatment with antioxidants ([1]; cotreatment with DTT or GSH): inhibited | ZBTB10 expression (ZBTB10): induction | miR-27a (miR-27a): downregulation | MALAT-1 expression (MALAT-1 [2]): significantly downregulate | MALAT-1 expression (MALAT-1 [3]): significantly downregulate | ROS (ROS): induce ROS | ZBTB10 (miR-27a, ZBTB10): increased | microRNA (miR)-27a (miR-27a, ZBTB10): decreased

siHOTAIR II: HOTAIR siRNA II, Sigma Aldrich catalogue No. SASI_Hs02—00380446 (UGAACACGACUUGGUGUGGTT; chemistry not given here)
expression of cyclin D1 and cyclin E (cyclin D1 and cyclin E [4]): decreased expression | expression of cyclin D1 and cyclin E (cyclin D1 and cyclin E [5]): decreased expression | Annexin V staining (apoptosis) (Panc1 cells [6]): enhanced | Annexin V staining (apoptosis) (L3.6pL cells [7]): enhanced | pancreatic tumor weight (L3.6pL cells [8]; after 16 days, vs siCT): dramatic decrease | HOTAIR expression in tumors (L3.6pL cells [8]; end of study, vs siCT): dramatic decrease | pancreatic tumor volume (L3.6pL cells [8]; up to 16 days, vs siCT): dramatic decrease | luciferase activity, GDF15 promoter constructs -3500 to +41, -1086 to +41 and -474 to +41 (GDF15 promoter): decreased

siHOTTIP: siRNA for HOTTIP, SEQ ID NO:9 (GCACAGAGAUAAUGGCAAAUU; listed as RNA, chemistry not given here)
cell proliferation / cell growth (Panc1 cells [9]): reductions in cell growth | cell proliferation / cell growth (L3.6pL cells [10]): reductions in cell growth | Annexin V staining (apoptosis) (Panc1 cells [6]): increased staining | Annexin V staining (apoptosis) (L3.6pL cells [7]): increased staining | PARP cleavage / cPARP [11]: induced expression | expression of EZH2, Cyclin D1, survivin and VEGF [11]: decreased expression | reduction in tumor weight (L3.6pL cells [8]; at sacrifice, vs control): ~75% | tumor volume (L3.6pL cells [8]; over ten days, vs control cells): significant reduction | transwell migration (Panc28 and Panc1 cells): significantly decreased

siMALAT-1a: siRNA for MALAT-1 knockdown, SEQ ID NO:5 (GGCAAUAGAGGCCCUUAA; listed as RNA, chemistry not given here)
cell proliferation / cell growth (Panc1 cells [9]): significant inhibition | cell proliferation (Panc28 cells): significant inhibition

siMALAT-1b: siRNA for MALAT-1 knockdown, SEQ ID NO:6 (GAAUUCCGGUGAUGCGAGU; listed as RNA, chemistry not given here)
cell proliferation / cell growth (Panc1 cells [9]): significant inhibition | cell proliferation (Panc28 cells): significant inhibition

siSp3: siRNA for Sp3, sequence SEQ ID NO:20 (GCGGCAGGUGGAGCCUUCACUTT; chemistry not given here)
HOTAIR expression after siRNA transfection (HOTAIR): significant decrease | mRNA level of the respective Sp (Sp1, Sp3, Sp4) (Sp1, Sp3, and Sp4 mRNA): decreased | HOTAIRM1 expression (HOTAIRM1): significant decrease | HOTTIP expression (HOTTIP): significant decrease | miR-21 expression (miR-21 and miR-181b [12]): decrease | miR-181b expression (miR-21 and miR-181b [12]): decrease | miR-21 expression (miR-21 and miR-181b [13]): decrease | miR-181b expression (miR-21 and miR-181b [13]): decrease

siSp4: siRNA for Sp4, sequence SEQ ID NO:21 (GCAGUGACACAUUAGUGAGCTT; chemistry not given here)
HOTAIR expression after siRNA transfection (HOTAIR): significant decrease | mRNA level of the respective Sp (Sp1, Sp3, Sp4) (Sp1, Sp3, and Sp4 mRNA): decreased | HOTAIRM1 expression (HOTAIRM1): significant decrease | HOTTIP expression (HOTTIP): significant decrease | miR-21 expression (miR-21 and miR-181b [12]): decrease | miR-181b expression (miR-21 and miR-181b [12]): decrease | miR-21 expression (miR-21 and miR-181b [13]): decrease | miR-181b expression (miR-21 and miR-181b [13]): decrease
